# Values quoted from earlier work, collected in patent US20140220080A1, “IgA SECRETION PROMOTER” (MATSUTANI CHEMICAL INDUSTRY CO., LTD., priority 2013, published 2014).
# System: IgA
# Conditions: Patent Literature 1, 2; Non-Patent Literature 1-3
smiles,measurement,value
OC[C@H]1O[C@@H](O[C@H]2[C@H](O)[C@@H](O)[C@@H](O[C@]3(CO)O[C@H](CO)[C@@H](O)[C@@H]3O)O[C@@H]2CO)[C@H](O)[C@@H](O)[C@H]1O [lactosucrose],action of promoting IgA secretion,have an action of promoting IgA secretion
